“Also recorded” adds a separate entry of the source.
Legend:
[1] = in vivo; cited from earlier work
[2] = test system: glutathione peroxidase (GPx); experiment: Activity and expression of glutathione peroxidase in rat tongue mitochondria; format: in vivo; settings: irradiated rats
Protocol: (§1) For topical administration in the oral cavity, the composition used was a hydrogel (gel) that comprised 1%, 3% or 5% melatonin (1, 3 or 5 grams of melatonin in 100 ml of the final volume of the composition, respectively) and in which 20% polyethylene and polypropylene copolymers were used as a gelling substance. Pluronic® F127 (poloxamer) was used as the polyethylene and polypropylene copolymers. 0.3% sodium benzoate was used as a preservative. 0.5% sweet orange essence was used. All the components used were acquired from FAGRON IBERICA, S.A.U., reference numbers: melatonin, 33457-27; Pluronic® F127, 33353-SP; sodium benzoate, 31360-12; orange essence, 30620-08. The chemical structure of melatonin is shown below: […]
(§2) […]

[3] = test system: mucositis caused by radiotherapy; experiment: Macroscopic appearance of rat tongue / mucositis after irradiation; format: in vivo; settings: irradiated rats
Protocol: For topical administration in the oral cavity, the composition used was a hydrogel (gel) that comprised 1%, 3% or 5% melatonin (1, 3 or 5 grams of melatonin in 100 ml of the final volume of the composition, respectively) and in which 20% polyethylene and polypropylene copolymers were used as a gelling substance. Pluronic® F127 (poloxamer) was used as the polyethylene and polypropylene copolymers. 0.3% sodium benzoate was used as a preservative. 0.5% sweet orange essence was used. All the components used were acquired from FAGRON IBERICA, S.A.U., reference numbers: melatonin, 33457-27; Pluronic® F127, 33353-SP; sodium benzoate, 31360-12; orange essence, 30620-08. The chemical structure of melatonin is shown below:
(§3) The animals used in experiments were rats weighing 280 g, and they were subjected to ionizing radiations under controlled conditions in the Experimental Radiology Unit at the Biomedical Research Center in the University of Granada. The animals were subjected to full exposure of 50 grays (Gy). The irradiation dose used each day was 10 Gy administered at 100.75 cGy/min, 210 kilovolts (kV) and 12 milliamperes (mA), and placing the animal 40 cm away from the radiation source.
The different formulations were applied to the animals as follows. A topical application was applied in the oral cavity before irradiation, another one after, and successive applications were applied every 8 hours for 21 days. […] The formulations used in the animals used in experiments were as follows: Pluronic F-127 gel with 1%, 3% or 5% melatonin (1, 3 or 5 grams of melatonin/100 ml gel, respectively), applied three times a day topically in the oral cavity at a volume of 500 μl/each time, giving a total of 1.5 ml/day. Topical application in the oral cavity means that the animals ingest the gel applied in the buccal cavity.
The experiments were also conducted by administering to the animals the same melatonin concentration as that used with the 3% w/v hydrogel, but by intraperitoneal route, to see if plasma melatonin could reduce mucositis or if it is necessary to apply said molecule by topical route. For the parenteral route, an isotonic solution that comprised 70% v/v (volume/volume) of isotonic saline solution and 30% v/v of propylene glycol, measured in relation to the total volume of the solution, was used. A daily dose of 45 mg of melatonin was injected for 21 days. The animals were sacrificed 21 days after starting irradiation, like the animals treated with melatonin gel applied by topical route in the oral cavity.

[4] = test system: fibrosis and angiogenesis between the muscle fibers of the tongue; experiment: Histology of rat tongue (hematoxylin-eosin, Masson Goldner's trichrome); format: in vivo; settings: irradiated rats treated with melatonin (both treatments: 3% gel topical and parenteral) versus irradiated animals
Text: as §3
(§4) The different formulations were applied to the animals as follows. A topical application was applied in the oral cavity before irradiation, another one after, and successive applications were applied every 8 hours for 21 days. […]
as §2

mitochondria = experiment: Electron microscopy of rat tongue mitochondria; format: in vivo; settings: irradiated rats; parenteral route
Text: as §3, §4, §2

glutathione = experiment: Glutathione levels (GSH, GSSG, GSSG/GSH) in tongue mitochondria of irradiated rats; format: in vivo, rat; settings: i.p. 45 mg a day for 21 days, compared with 3% gel topical
Protocol: as §1, §2

[5] = test system: glutathione reductase (GRd); experiment: Activity and expression of glutathione reductase in rat tongue mitochondria; format: in vivo; settings: irradiated rats; i.p. 45 mg a day for 21 days
Protocol: as §1, §2

[6] = Melatonin levels in rat tongue mitochondria; format: in vivo; settings: irradiated rats; parenteral (i.p.) 45 mg a day
Text: as §3, §4, §2

[7] = test system: mitochondrial respiratory chain complexes CI, CIII, CIV and CV; experiment: Expression of mitochondrial respiratory chain complexes in rat tongue by Western blot; format: in vivo; settings: irradiated rats; i.p. 45 mg a day for 21 days
Text: as §3, §4, §2

melatonin levels in the tongue [6]: not restored
SMILES: COc1ccc2[nH]cc(CCNC(C)=O)c2c1 [melatonin, N-acetyl-5-methoxytryptamine]
half-life [1]: 30 min | activity and expression of GPx ([2]; 3% w/v gel topical in the oral cavity, 45 mg a day): partially counteract the effect of irradiation | activity and expression of GPx ([2]; i.p. 45 mg a day for 21 days): partially counteract the effect of irradiation | minimum effective dose for treating mucositis, daily dose ([3]; 3% gel applied three times a day, 500 μl in each application): 45 mg | macroscopic tongue lesions (morphological appearance of the tongue) ([3]; 3% w/v gel, topical application in the oral cavity): completely normalizes the morphological appearance of the tongue | minimum effective dose for treating mucositis, melatonin concentration in the gel ([3]; gel applied three times a day, 500 μl in each application): 3% | mucositis caused by radiotherapy (macroscopic tongue lesions) ([3]; gel topical in the oral cavity, three times a day, 21 days): complete prevention of mucositis | macroscopic tongue lesions / mucositis ([3]; parenteral (i.p.) 45 mg a day for 21 days): unable to restore tongue lesions after irradiation; also recorded: no benefit whatsoever | fibrosis and angiogenesis between the muscle fibers of the tongue [4]: decrease in fibrosis and in angiogenesis | mitochondrial damage by electron microscopy (broken mitochondria) (mitochondria): broken mitochondria are observed | GSSG/GSH ratio in tongue mitochondria (glutathione): higher GSSG/GSH ratio | restoring GSH and reducing GSSG in tongue mitochondria (glutathione): lower efficacy | activity and expression of GRd [5]: unable to restore the enzyme | expression of complex V or ATP synthase [7]: completely unable to restore the expression of complex V

— patent US8962673B2, “Use of melatonin for treating and/or preventing mucositis” (Universidad de Granada, priority 2011, dated 2015)
